According to patent US6432972B1, “Treating allergic and inflammatory conditions” (Schering Corporation, priority 2000, dated 2002):

What was measured:
[1] = stability of free base versus acid addition salt; format: physicochemical
Excerpt: Such pharmaceutical compositions may be formulated by combining desloratadine or an equivalent amount of a pharmaceutically acceptable salt thereof with a suitable, inert, pharmaceutically acceptable carrier or diluent that may be either solid or liquid. Desloratadine may be converted into the pharmaceutically acceptable acid addition salts by admixing it with an equivalent amount of a pharmaceutically acceptable acid. Typically suitable pharmaceutically acceptable acids include the mineral acids, e.g., HNO3, H2SO4, H3PO4, HCl, HBr, organic acids, including, but not limited to, acetic, trifluoroacetic, propionic, lactic, maleic, succinic, tartaric, glucuronic and citric acids as well as alkyl or arylsulfonic acids, such as p-toluenesulfonic acid, 2-naphthalenesulfonic acid, or methanesulfonic acid. The preferred pharmaceutically acceptable salts are trifluoroacetate, tosylate, mesylate, and chloride.

patients with SAR = experiment: pooled randomized, parallel-group, double-blind, placebo-controlled studies; nasal congestion/stuffiness severity score in patients with SAR; format: in vivo, human; details: for nasal congestion/stuffiness, 14-day average change in symptom severity score from baseline: baseline score 2.4
Description: The severity (0=none, 1=mild, 2=moderate, 3=severe) of congestion/stuffiness was assessed by patients for the study duration. The 14-day average change in symptom severity score from baseline was assessed. The mean symptom severity score for nasal congestion/stuffiness was 2.4 in each treatment group at baseline, indicating patients had moderate-to-severe nasal congestion before receiving treatment.

[2] = system: seasonal allergic rhinitis patients; experiment: double-blinded, randomized clinical trials in seasonal allergic rhinitis patients; format: in vivo, human
Description: Efficacy endpoints in all the studies were Total Symptom Score, Total Nasal Symptom Score, Total Non-nasal Symptom Score, and Health Quality of Life (HQOL) analysis in efficacy trials. […] An important efficacy endpoint analyzed in the desloratadine studies is the AM NOW total symptom score. This parameter measures the total symptom relief by the patient after 24 hours before taking the next day dose.

**Q.** Which “stability, free base compared with acid addition salt” value [1] does the source give for `Clc1ccc2c(c1)CCc1cccnc1C2=C1CCNCC1` [Desloratadine] here?
**A.** more stable as the free base than as an acid addition salt

**Q.** And the “nasal congestion/stuffiness, 14-day average change in symptom severity score from baseline” value (patients with SAR; 5 mg PO once a day for 14 days, P=0.02 vs placebo)?
**A.** significantly decreased

**Q.** And the total symptom severity (patients with SAR; 5 mg or 7.5 mg PO once a day for 14 days, vs placebo)?
**A.** significantly decreased

**Q.** What about the “nasal congestion/stuffiness, 14-day average change in symptom severity score from baseline” value (patients with SAR; 7.5 mg PO once a day for 14 days, P=0.01 vs placebo) of the same compound?
**A.** significantly decreased

**Q.** What about the “total symptom scores (sum of individual scores for rhinorrhea, sneezing, congestion/stuffiness, nasal itching, itchy/burning eyes, tearing, ocular redness, itchy ears/palate)” value ([2]; 5 mg once daily, adult and adolescent seasonal allergic rhinitis patients) of the same compound?
**A.** significantly reduced

**Q.** And the “AM NOW total symptom score (symptom relief after 24 hours, before next day dose)” value ([2]; 5 mg to 20 mg dosage range, p<0.05)?
**A.** Statistically significant (p<0.05) reductions were maintained for the full 24 hour dosing interval

**Q.** And the “reducing nasal symptoms vs placebo” value ([2]; 5 mg, p<0.01 vs placebo)?
**A.** significantly (p<0.01) more effective than placebo
